Key:
Assay in all cases: relative viability (nuclei count vs DMSO), 5 days (fraction); higher = more cells survive
[1] = compound: NC1(c2ccc(-c3nc4ccn5c(=O)[nH]nc5c4cc3-c3ccccc3)cc2)CCC1 [MK-2206] + CS(=O)(=O)N1CCN(Cc2cc3nc(-c4cccc5[nH]ncc45)nc(N4CCOCC4)c3s2)CC1 [Pictilisib] (partner 1 µM)
Summary of the method: (§1)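 Lung cancer cell lines in 1536-well plates got either a single drug or a fixed anchor-drug dose together with five library-drug doses (not always all listed) in √10 steps, by pin tool, on the day after seeding. Nuclei were counted after 5 days, and relative viability is the treated-to-vehicle ratio of nuclei counts. Values are medians of duplicate plates.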

[2] = compound: CS(=O)(=O)N1CCN(Cc2cc3nc(-c4cccc5[nH]ncc45)nc(N4CCOCC4)c3s2)CC1 [Pictilisib] + C[C@@H](Oc1cc(-c2cnn(C3CCNCC3)c2)cnc1N)c1c(Cl)ccc(F)c1Cl [Crizotinib] (partner 1 µM)
Summary of the method: as §1

[3] = compound: CS(=O)(=O)N1CCN(Cc2cc3nc(-c4cccc5[nH]ncc45)nc(N4CCOCC4)c3s2)CC1 [Pictilisib] + Cc1nc(NC(=O)N2CCC[C@H]2C(N)=O)sc1-c1ccnc(C(C)(C)C(F)(F)F)c1 [Alpelisib] (partner 2 µM)
Summary of the method: as §1

[4] = compound: CS(=O)(=O)N1CCN(Cc2cc3nc(-c4cccc5[nH]ncc45)nc(N4CCOCC4)c3s2)CC1 [Pictilisib] + Cc1cc(Nc2cc(N3CCN(C)CC3)nc(Sc3ccc(NC(=O)C4CC4)cc3)n2)n[nH]1 [Tozasertib] (partner 0.1 µM)
Summary of the method: as §1

[5] = compound: NC1(c2ccc(-c3nc4ccn5c(=O)[nH]nc5c4cc3-c3ccccc3)cc2)CCC1 [MK-2206] + COc1cccc2cc(-c3nc([C@H]4CC[C@H](C(=O)O)CC4)n4ncnc(N)c34)[nH]c12 [OSI-027] (partner 0.5 µM)
Summary of the method: as §1

Row | Cell Line | relative viability ([1]; first compound 0.01 µM) | relative viability ([1]; first compound 0.03162 µM) | relative viability ([1]; first compound 0.3162 µM) | relative viability ([1]; first compound 1 µM) | relative viability ([2]; first compound 0.02 µM) | relative viability ([2]; first compound 0.06325 µM) | relative viability ([2]; first compound 0.6325 µM) | relative viability ([2]; first compound 2 µM) | relative viability ([3]; first compound 0.02 µM) | relative viability ([3]; first compound 0.06325 µM) | relative viability ([3]; first compound 0.6325 µM) | relative viability ([3]; first compound 2 µM) | relative viability ([4]; first compound 0.02 µM) | relative viability ([4]; first compound 0.06325 µM) | relative viability ([4]; first compound 0.6325 µM) | relative viability ([4]; first compound 2 µM) | relative viability ([5]; first compound 0.01 µM) | relative viability ([5]; first compound 0.03162 µM) | relative viability ([5]; first compound 0.3162 µM) | relative viability ([5]; first compound 1 µM)
1 | NCI-H520 | 0.275 | 0.228 | 0.276 | 0.223 | 0.826 | 0.884 | 0.504 | 0.197 | 0.996 | 0.815 | 0.724 | 0.267 | 0.413 | 0.412 | 0.234 | 0.232 | 0.243 | 0.233 | 0.17 | 0.238
2 | LXF-289 | 0.755 | 0.821 | 0.748 | 0.705 | 0.862 | 0.837 | 0.843 | 0.752 | 1.08 | 1.07 | 1.06 | 0.822 | 0.224 | 0.215 | 0.155 | 0.0896 | 0.782 | 0.862 | 0.604 | 0.743
3 | NCI-H2087 | 0.817 | 0.933 | 0.833 | 0.671 | 0.912 | 0.828 | 1.03 | 0.985 | 1.22 | 1.06 | 1.02 | 0.954 | 0.232 | 0.228 | 0.168 | 0.187 | 0.548 | 0.636 | 0.392 | 0.303
4 | CAL-12T | 0.58 | 0.455 | 0.465 | 0.229 | 0.615 | 0.893 | 0.704 | 0.471 | 1.32 | 1.12 | 1.19 | 0.883 | 0.296 | 0.314 | 0.277 | 0.17 | 0.67 | 0.554 | 0.452 | 0.485
5 | NCI-H596 | 0.446 | 0.386 | 0.324 | 0.345 | 0.91 | 1.05 | 0.631 | 0.354 | 0.476 | 0.481 | 0.523 | 0.36 | 0.822 | 0.901 | 0.591 | 0.356 | 0.706 | 0.887 | 0.591 | 0.41
6 | PC-14 | 0.635 | 0.627 | 0.648 | 0.514 | 0.909 | 0.928 | 0.926 | 0.681 | 0.924 | 0.943 | 1.02 | 0.766 | 0.61 | 0.583 | 0.641 | 0.46 | 0.746 | 0.911 | 0.597 | 0.661
7 | NCI-H1915 | 0.866 | 1.1 | 0.88 | 0.947 | 0.855 | 1 | 0.889 | 0.898 | 1.08 | 1.11 | 0.998 | 1.07 | 0.433 | 0.432 | 0.405 | 0.308 | 0.646 | 0.693 | 0.606 | 0.496
8 | NCI-H647 | 0.455 | 0.452 | 0.354 | 0.273 | 1.16 | 1.18 | 0.884 | 0.524 | 1.09 | 1.26 | 0.894 | 0.467 | 0.323 | 0.338 | 0.291 | 0.0558 | 0.573 | 0.584 | 0.469 | 0.641

Source: the supplement of paper PMC10307832
